From patent publication US11207289B2, “Use of benzofuran lignans to induce IL-25 expression and suppress mammary tumor metastasis” (ACADEMIA SINICA, priority 2016, dated 2021)

Columns and labels:
[1] = test system: mouse IL-25; test: 3-D culture, western blot of IL-25 in 3T3 fibroblasts and 3T3-CM; type: cell-based
Description: To mimic the tumor microenvironment, a 3-dimensional (3-D) co-culture system was employed for the maintenance of mammary tumor cells and tumor-associated fibroblasts in adjacent collagen gels as reported in Rajan et al., Nature protocols, 1, 2753-2758 (2006). More specifically, rat tail collagen solution dissolved in acetic acid was neutralized by 1 N NaOH and then mixed with 10×PBS at 4° C. in a ratio of 9:1. To construct solid tumor-like cell mass, mouse (4T1 or TS/A cells) or human (MCF-7 or MDA-MB-231 cells) mammary tumor cells in each correspondent culture medium (1×10^6 cells/ml) were mixed with 4 mg/ml collagen solution in a ratio of 1:1. Four drops of collagen-tumor cell mixture ([…]) were immediately and separately loaded on culture substratum in each well of a 6-well plate. The plates were then turned-over and kept in CO2 incubator at 37° C. for collagen gelation. […]
To pull down and deplete IL-25 protein molecules in 3T3 or MDA-MB-231 cell conditioned media, the Dynabeads antibody coupling kit (Life Technology; 14311D) was used according to the manufacturer's recommendations, yielding 10 mg/ml anti-IL25 antibody (ProteinTech, Chicago, Ill.)-coupled beads. […] The antibody-pulled down proteins from 3T3-CM, NHDF-CM or WI38-CM, were detected for the content of secreted IL-25 protein in each conditioned medium using western blot analysis. […]

[2] = MTT assay, cytotoxic effect on M10; type: cell-based; details: human, M10 cells (normal human mammary epithelial cell line)
Description: (§1) M10, WI38, SKBR3, and MDA-MB-231 cells (1×10^5 cells/ml) dispensed in 96-well plates were incubated with vehicle or test compounds (Q2-3) for 24 h or 72 h in corresponding basal medium in a 5% CO2 incubator. To evaluate the effect of secreted IL-25 from Q2-3-treated fibroblasts on growth activity of mammary tumor cells, 4T1 and MDA-MB-231 cells (1×10^4 cells/ml) dispensed in 96-well plates were incubated with control medium or different fibroblast conditioned media (200 μl/ml) which was changed daily for 5 days. All treatments were performed in triplicate cell cultures. The growth activity of cells was assayed using a 3-(4, 5-dimethythiazol-2-yl)-2, 5-diphenyl tetrazolium bromide (MTT; Sigma-Aldrich) colorimetric method. The absorbance at 570 nm (A570) was measured using a multiwall scanning spectrophotometer.
FIG. 1 is a schematic depiction of cytotoxic effects of dihydrobenzofuran lignan (Q2-3) on breast tumor cells. (a): Scheme for synthesis of Q2-3 (methyl (E)-3-[2-(3,4-dihydroxyphenyl)-7-hydroxy-3-methoxycarbonyl-2,3-dihydro-1-benzofuran-5yl]prop-2-enoate) from two caffeic acid methyl ester molecules. […] The beginning cytotoxic dosage of Q2-3 was detected at 0.3 μM, with >50% kill rate on SKBR3 and MDA-MB-231 cells. […]

[3] = test system: SKBR3 cells; test: MTT assay, cytotoxic effect on SKBR3; type: cell-based, human
Description: as §1
FIG. 1 is a schematic depiction of cytotoxic effects of dihydrobenzofuran lignan (Q2-3) on breast tumor cells. (a): Scheme for synthesis of Q2-3 (methyl (E)-3-[2-(3,4-dihydroxyphenyl)-7-hydroxy-3-methoxycarbonyl-2,3-dihydro-1-benzofuran-5yl]prop-2-enoate) from two caffeic acid methyl ester molecules. (b) and (c): MTT assays for cytotoxic effect of Q2-3 on SKBR3 (ER^−Her^+ human breast cancer cell line), MDA-MB-231 (ER^−Her^− human breast cancer cell line), M10 (human normal epithelial cell line) and WI38 (human lung fibroblast cell line). 2×10^4 cells were seeded and compared for their growth activity after treatment with Q2-3 for 24 or 72 h. The beginning cytotoxic dosage of Q2-3 was detected at 0.3 μM, with >50% kill rate on SKBR3 and MDA-MB-231 cells.
The effects of Q2-3 on cell viability were tested on four different cell lines, i.e., normal human mammary epithelial (M10), normal human […] (WI38), and two human mammary tumor cells (SKBR3 and MDA-MB-231), by treating cells with Q2-3 at various concentrations for 24 h (FIG. 1b) and 72 h (FIG. 1c).

COC(=O)/C=C/c1cc(O)c2c(c1)C(C(=O)OC)C(c1ccc(O)c(O)c1)O2 (stereo not drawn) [Q2-3, methyl(E)-3-[2-(3,4-dihydroxyphenyl)-7-hydroxy-3-methoxycarbonyl-2,3-dihydro-1-benzofuran-5yl]-prop-2-enoate]
expression of IL-25 in mouse (3T3) fibroblasts ([1]; 3-D culture, treatment 24 h or 72 h): increased
level of secreted IL-25 in fibroblast-conditioned medium vs untreated ([1]; 3T3-CM): significantly higher
viability at 2 µM [2]: ≥ 80%
inhibition at 0.5 µM ([3]; Homo sapiens, SK-BR-3, ≥0.5 μM, 24 h and 72 h, vs 0.1% DMSO control, read-out: growth inhibition): ≥ 60%
kill rate ([3]; at 0.3 μM): > 50%
beginning cytotoxic dosage ([3]; treatment 24 or 72 h): 0.3 µM
